Patent US7339042B2, “Gene delivery to tumors” (University of Florida Research Foundation, Inc., priority 2003, dated 2008)

Legend:
[1] = Fusion peptide cell killing, propidium iodide/FACS viability, T98G cells; type: cell-based, human; conditions: peptides in complete media for 1 hr, Table 2, read-out: % Viable Cells
Procedure: (§1) Other experiments were performed using two glioma cell lines, i.e., T98G and RG2. 1×10^6 cells per well were incubated in 6-well plates with peptides in complete media for 1 hr. Cells were removed from the plate using a cell stripper and the percentage of viable cells was determined by staining with propidium iodide and analyzing by fluorescence activated cell sorting (FACS).
(§2) Cell viability studies were performed by plating the cells under the same conditions as the uptake studies. Cells were incubated with fluorescent peptides for 1 hr at 37° C. The cells were removed from the plate using cell striper. They were labeled with propidium iodide and fluorescein-AM. Percent PI positive cells were determined by FACS.

T98G cells = assay: as above; type: cell-based, human
Procedure: as §1, §2

RG2 cells = assay: Fusion peptide cell killing, propidium iodide/FACS viability, RG2 cells; type: cell-based, rat; conditions: peptides in complete media for 1 hr, Table 2
Procedure: as §1
(§3) There are 4 conserved amino acid differences between the rat and human CDKI sequence. Both sequences were attached to Tat and tested for cell killing activity in the rat glioma RG2 cells. Also the effect of orientation of the Tat and CDKI domains were tested. RG2 cells were plated on 6 well plates at approximately 70% confluency. Each of the peptides was added to the wells with increasing concentration. After 1 hr, cells were removed from the plates, washed 2× with PBS, stained with propidium iodide and analyzed by FACS for viable cells.
as §2
(§4) The cytotoxicity of the chimeric peptides was characterized using a cell viability assay. Peptides were added to cells at a fixed concentration. After a 30-minute incubation, cells were removed from the plate, stained with propidium iodide and the % positive cells were determined by FACS (fluorescent activated cell scanning). The test conditions were Tat, ANT, Tat-P14ARF, ANT-P14ARF and P14ARF. T98G cells were tested along with RG2 cells and A172 cells.

[2] = as above; type: cell-based, rat; conditions: peptides in complete media for 1 hr, Table 2
Procedure: as §1, §3, §2, §4

A172 cells = assay: Fluorescein peptide uptake by A172 cells, fluorescence microscopy; type: cell-based, human; conditions: 30 uM peptide, 1 hr, 37° C., serum containing media
Procedure: For fluorescent microscopy studies cells were plated on 2 chamber cover slips at a density of 1×10^4 cells/chamber. Cells were incubated with […] peptide for 30 minutes in completed media, washed with PBS 3× and imaged using a Nikon Axiophot inverted fluorescent microscope. Images were taken using a Spot CCD camera.
Synthetic peptides derived from HIV Tat (Tat) and the Drosophila antennaepedia homeodomain (ANT) were tested for cell uptake by A172 cells (human glioblastomas). The peptides were labeled at the N-terminus with fluorescein. Cells were incubated with 30 uM peptide at 37° C. in serum containing media. Fluorescent micrographs were taken after 1 hr incubation at 37° C. […] The size of the peptide was increased by added an Mdm-2 binding domain derived from P14ARF. This domain was added to the C-terminus of the Tat and ANT peptides. The P14ARF domain was also placed at the N-terminus followed by the Tat peptide. All the peptides were labeled at the N-terminus with fluorescein and cell incubations similar to the Tat and ANT peptides were tested for cellular uptake. […] Both the bright field and fluorescent micrographs show altered cell morphology.

[3] = tested on: endothelial cells and smooth muscle cells of rat cerebral arteries; assay: Uptake of fluorescent peptides by pressure-mounted rat cerebral arteries; type: cell-based; conditions: intraluminal perfusion of fluorescent peptide
Procedure: Tat-P16 peptides were prepared and labeled with fluorescein for use in uptake studies using intact blood vessels isolated from rat brain. Blood vessels were dissected from rat brain and stabilized in an isolated perfusion system in which vessels were attached on either end to catheters and placed under physiological pressure. Following a 10 minute perfusion of the isolated vessels with flurorescent Tat-P16 peptide (1 μM), vessels were examined for uptake of the peptides. […] Within the endothelial cells, the labeled peptides were seen to be localized to the cell nuclei, further confirming uptake of the peptides by the cells.
The peptides are fairly labile in the media and approximately 50% are degraded upon incubation at 37° C. in complete media (qualitative analysis by PAGE) after 1 hour. […] Uptake of these peptides and cell killing activity was tested in a 3 dimensional organ culture using rat cerebral arteries cultured under physiological pressure and flow. A segment of the rat cerebral artery is surgically removed and placed in ringer's solution. Using a surgical stereoscope, the blood vessel is tied at either end to two cannulas on a teflon stage. Ringer's solution is perfused through the lumen of the vessel at a constant rate that maintains physiologic hydrostatic pressure. The fluorescent peptide was introduced intraluminally by perfusing a 1 μM solution of peptide through the lumen over a 10 minute period.
Rats were anesthetized by intraperitoneal injection of pentobarbital sodium (160 mg/kg) and killed by decapitation. The brain was removed and placed in an ice-cold oxygenated physiological cerebrospinal fluid (PCSF, see below for composition). Cerebellar arteries were isolated and mounted in an arteriograph as described previously (Knot and Nelson 1998). The arteriograph was placed on an inverted microscope and the artery was visualized with a monochrome CCD camera coupled to a calibrated video caliper system to measure arterial diameter. The arteries were slowly pressurized to 70 mmHg under no flow conditions using a pressure servo-null system (Living Systems Inc., Burlington Vt.), and warmed to 37° C. while being continuously superfused (5 ml/min) with PCSF bubbled with 21% O2, 5% CO2, 74% N2 (pH 7.35-7.40 in the bath). […] Myogenic tone is calculated by the following equation: Myogenic tone=(Dp−Da)/Dp×100
In some experiments, the arterial segments were denuded of endothelium by passing an air bubble through the lumen, thus exposing the smooth muscle cells to luminally administered peptides. Constriction to pressure and 60 mM KCl and dilation of arteries with myogenic tone to 16 mM KCl were used as benchmarks of functional arteries. Peptide containing PCSF was perfused intraluminally at an inlet pressure of 70 mmHg with the outlet open, for 20 min and then perfused with normal PCSF. This procedure ensures a 20 min of exposure of the arteries to the peptide.

C[C@H](N)C(=O)NCC(=O)NCC(=O)NCC(=O)N[C@@H](Cc1ccc(O)cc1)C(=O)NCC(=O)N[C@@H](CCCNC(=N)N)C(=O)N[C@@H](CCCCN)C(=O)N[C@@H](CCCCN)C(=O)N[C@@H](CCCNC(=N)N)C(=O)N[C@@H](CCCNC(=N)N)C(=O)N[C@@H](CCC(N)=O)C(=O)N[C@@H](CCCNC(=N)N)C(=O)N[C@@H](CCCNC(=N)N)C(=O)N[C@@H](CCCNC(=N)N)C(=O)O [Tat]
viability [1]: 94.9%
% killing (toxicity) (T98G cells; 10 μM peptide, 1 hr): no toxicity
% Viable Cells (T98G cells; peptides in complete media for 1 hr, Table 2): ineffective
% Viable (RG2 cells): ineffective
viability [2]: 94%
staining pattern (cell uptake) (A172 cells): intracellular punctate
labeling/uptake by endothelial cells [3]: selectively labeling the endothelial nuclei
labeling/uptake by smooth muscle cells [3]: did not label the smooth muscle cells
